Assay [1] addresses Trypanothione reductase (Trypanosoma cruzi) (UniProt P28593). The experiment in a line: Inhibition of Trypanosoma cruzi recombinant trypanothione reductase at 85 uM.
Another assay relates to Leishmania infantum. The experiment in a line: Antileishmanial activity against Leishmania infantum promastigotes. In kind it is functional, organism-based.
Assay [2] deals with Leishmania amazonensis. The experiment in a line: Antileishmanial activity against Leishmania amazonensis MHOM/BR/76/LTB-012 promastigotes at 100 uM after 72 hrs by alamar blue assay. In kind it is functional. The conditions noted are these: MHOM/BR/76/LTB-012, 72 h, read-out: GI. (In general: Alamar Blue is a resazurin reagent that responds to reducing activity.)
The target of assay [3] is Trypanothione reductase (Trypanosoma cruzi) (UniProt P28593). The experiment in a line: (§1) Inhibition of Trypanosoma cruzi recombinant trypanothione reductase.
Chain of Trypanothione reductase (Trypanosoma cruzi) (P28593 whole entry, looked up): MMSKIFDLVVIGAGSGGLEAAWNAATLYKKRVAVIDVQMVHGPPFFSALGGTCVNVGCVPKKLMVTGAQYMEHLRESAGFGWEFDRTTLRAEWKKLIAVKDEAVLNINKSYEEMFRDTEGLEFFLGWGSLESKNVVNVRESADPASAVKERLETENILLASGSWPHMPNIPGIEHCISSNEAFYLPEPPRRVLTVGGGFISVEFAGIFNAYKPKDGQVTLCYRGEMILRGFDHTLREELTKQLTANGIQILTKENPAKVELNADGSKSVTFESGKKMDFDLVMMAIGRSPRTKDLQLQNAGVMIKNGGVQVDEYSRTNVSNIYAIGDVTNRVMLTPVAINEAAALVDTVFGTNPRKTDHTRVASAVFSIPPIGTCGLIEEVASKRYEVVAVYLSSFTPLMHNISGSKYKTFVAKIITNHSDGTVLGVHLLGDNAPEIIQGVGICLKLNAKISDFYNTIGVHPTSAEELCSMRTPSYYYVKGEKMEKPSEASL
Assay [4] deals with T1, Trypanothione reductase (Trypanosoma cruzi, UniProt P28593). The description is as §1.
T1 sequence (P28593 whole entry): as the sequence (P28593 whole entry, looked up) above
Assay [5] addresses T2, Glutathione reductase (Saccharomyces cerevisiae S288c) (UniProt P41921).
T2 sequence (whole entry): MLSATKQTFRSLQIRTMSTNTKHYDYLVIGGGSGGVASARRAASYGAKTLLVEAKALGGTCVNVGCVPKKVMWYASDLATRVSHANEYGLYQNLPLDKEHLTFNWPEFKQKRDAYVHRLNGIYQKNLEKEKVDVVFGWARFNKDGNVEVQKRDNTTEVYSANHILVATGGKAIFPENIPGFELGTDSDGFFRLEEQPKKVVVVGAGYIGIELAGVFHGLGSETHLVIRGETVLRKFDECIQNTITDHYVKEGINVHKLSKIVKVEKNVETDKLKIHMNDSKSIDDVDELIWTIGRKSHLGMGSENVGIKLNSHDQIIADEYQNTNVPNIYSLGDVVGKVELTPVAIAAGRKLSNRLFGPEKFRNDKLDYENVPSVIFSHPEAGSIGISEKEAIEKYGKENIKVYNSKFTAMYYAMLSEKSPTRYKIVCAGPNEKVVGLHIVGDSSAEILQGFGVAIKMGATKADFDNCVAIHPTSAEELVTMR
The experiment in a line: Inhibition of yeast glutathione reductase at 100 uM.

The subject of another assay is NIH3T3. The experiment in a line: Cytotoxicity against mouse NIH3T3 cells. In kind it is cell-based.
For assay [6], the target named is T2, Glutathione reductase (Saccharomyces cerevisiae S288c). The experiment in a line: Inhibition of yeast glutathione reductase at 10 uM.
Assay [7] concerns the target Trypanothione reductase (Trypanosoma cruzi) (UniProt P28593). The experiment in a line: Inhibition of Trypanosoma cruzi recombinant trypanothione reductase at 12.2 uM.
Assay [8] has the same target. The assay can be described thus: Inhibition of Trypanosoma cruzi recombinant trypanothione reductase at 200 uM.
The target is the same in assay [9]. The assay can be described thus: Inhibition of Trypanosoma cruzi recombinant trypanothione reductase at 400 uM.
For assay [10] the target is unchanged. The experiment in a line: Inhibition of Trypanosoma cruzi recombinant trypanothione reductase at 800 uM.
The target in assay [11] is T3, Trypanothione reductase (Crithidia fasciculata, UniProt P39040). The assay can be described thus: Inhibition of Crithidia fasciculata free trypanothione reductase.
T3 sequence (P39040 whole entry): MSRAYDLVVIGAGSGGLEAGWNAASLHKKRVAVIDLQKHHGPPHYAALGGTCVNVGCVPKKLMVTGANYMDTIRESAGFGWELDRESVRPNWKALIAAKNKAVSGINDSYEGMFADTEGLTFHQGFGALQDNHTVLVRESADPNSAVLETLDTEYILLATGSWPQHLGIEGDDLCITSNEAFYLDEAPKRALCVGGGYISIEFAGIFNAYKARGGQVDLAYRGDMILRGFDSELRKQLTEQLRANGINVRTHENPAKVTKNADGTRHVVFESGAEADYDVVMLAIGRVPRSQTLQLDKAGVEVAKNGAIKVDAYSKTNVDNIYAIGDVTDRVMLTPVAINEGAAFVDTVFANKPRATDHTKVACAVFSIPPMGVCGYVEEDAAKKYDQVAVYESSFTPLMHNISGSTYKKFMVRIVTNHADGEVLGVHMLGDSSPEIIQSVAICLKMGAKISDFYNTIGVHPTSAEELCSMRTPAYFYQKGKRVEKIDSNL
In assay [12] the target is T3, Trypanothione reductase. The experiment in a line: Inhibition of Crithidia fasciculata trypanothione reductase-substrate complex.
Assay [13] relates to Leishmania amazonensis. The experiment in a line: Antileishmanial activity against Leishmania amazonensis MHOM/BR/76/LTB-012 promastigotes after 72 hrs by alamar blue assay. In kind it is functional, organism-based. The conditions noted are these: MHOM/BR/76/LTB-012, 72 h.
For assay [14], the target named is T1, Trypanothione reductase. The experiment in a line: Inhibition of Trypanosoma cruzi recombinant trypanothione reductase-substrate complex.

What is called inhibition is the change of the read-out against control, counted positive when it falls. The IC50 is the point on the concentration scale where inhibition reaches its midpoint. As a reminder, the Ki is a measure of affinity in units of concentration, obtained from inhibition or displacement.

Structures are written as SMILES. Active and inactive are the calls of the source. The rule behind the calls is not given here.

For the molecule `CN(C)CCCn1c2ccccc2c2ccncc21`, the inhibition in assay [1] was 20%.
For the molecule `COc1ccc2c3c([nH]c2c1)C(C)=NCC3` [HARMALINE], the inhibition in [1] turned out to be 19%. The IC50 in the assay on Leishmania infantum came to 119 µM.
With `C=CC1CN2CCC1CC2C(O)c1ccnc2ccccc12` (centres undefined), in [1], the inhibition was determined as 18%. For the same molecule, in the assay with Leishmania amazonensis [2], the inhibition of growth at 100 µM is 51%.
`O=c1[nH]c2c(c(=O)[nH]1)Nc1ccccc1S2` [PYRIMIDOBENZOTHIAZINE]: the inhibition in [1] came out at 36%. The inhibition of growth at 100 µM with Leishmania amazonensis [2] is 15%.
For `O=C(/C=C/C=C/c1ccc2c(c1)OCO2)N1CCCCC1`, the inhibition in assay [1] was determined as 11%.
Turning to `O=C1CC[C@]23/C=C/C(=O)NCCCCNCCCNC(=O)/C=C\c4ccc(c2c4)O[C@@H]3C1`, the Kinact in assay [3] was found to be 0.116 min⁻¹. In addition, the Ki at Trypanothione reductase [4] was 144 µM.
For the molecule `CN(C)CCCn1c2c(c(=O)n(CCCN(C)C)c1=O)Nc1ccccc1S2`, at Trypanothione reductase [4], the Ki was 26.9 µM. For the same molecule, the inhibition in [1] stood at 62%. In addition, the result in assay [5] was inactive. Further, the inhibition of growth at 100 µM with Leishmania amazonensis [2] was determined as 11%.
Turning to `CC[C@H]1[C@@H]2C[C@H]3[C@@H]4N(C)c5ccccc5[C@]45C[C@@H]([C@@H]2[C@H]5O)N3[C@@H]1O` [AJMALINE], the inhibition in [1] came to 12%. Also, the inhibition of growth at 100 µM in the assay on Leishmania amazonensis [2] came to 5%.
Regarding `Cc1nccc2c1[nH]c1ccccc12`, the inhibition in [1] is 10%.
As for `CN(C)Cc1cn(C)c2ccccc12`, the inhibition in assay [1] was found to be 8%.
`COc1ccc(-c2cc(=O)c3c(O)cc(OC)cc3o2)cc1`: the inhibition in [1] came to 12%.
Still for that read-out and setting: the same measure for `O=c1cc(-c2ccc(O)cc2)oc2cc(O)cc(O)c12`: 13%; for `COc1ccc2c(c1)[nH]c1c(C)nccc12`: 11%.
With `CC[C@@]12CCCN3CC[C@]4(c5cccc(OC)c5N(C(C)=O)[C@@H]4CC1)[C@H]32` [ASPIDOSPERMINE], at Trypanothione reductase [4], the IC50 is 90.4 µM and the Ki is 64.6 µM. Besides, the inhibition in [1] came to 43%. Further, the result in [5] was inactive. In addition, in the assay with Leishmania amazonensis [2], the inhibition of growth at 100 µM amounted to 89%. In the assay with NIH3T3, half-maximal inhibition (IC50) was put at 46.2 µM.
In [6], `CN(C)c1ccc2nc3ccc(=[N+](C)C)cc-3sc2c1` yielded an inhibition of 30%.
With `N#Cc1ccc(C2NCCc3c2[nH]c2ccccc32)cc1` (centres undefined), the inhibitory constant (Ki) at Trypanothione reductase [4] was 2 µM.
Turning to `COc1ccc2c3ccnc(C)c3n(CCCN(C)C)c2c1`, the inhibition in assay [1] came to 13%.
On to `CC1=CC2c3cccc4[nH]cc(c34)C[C@H]2N(C)C1` (some centres undefined), for which the inhibition in assay [1] is 28%. Moreover, the inhibition of growth at 100 µM in the assay on Leishmania amazonensis [2] stood at 70%.
Turning to `C[C@@H]1CN(CCCn2c3ccccc3c3ccccc32)C[C@H](C)N1`, the inhibition in assay [1] came out at 4%.
Turning to `O=c1[nH]c2c(c(=O)[nH]1)CNc1ccccc1S2` [PYRIMIDOBENZOTHIAZEPINE], the inhibition in assay [1] was determined as 10%. In the assay with Leishmania amazonensis [2], the inhibition of growth at 100 µM was 14%.
With `Cc1nccc2c3ccccc3n(CCCN(C)C)c12`, the inhibition in assay [1] was 22%.
As for `COC(=O)NC1CCc2cc(OC)c(OC)c(OC)c2-c2ccc(OC)c(=O)cc21` (centres undefined) [COLCHININE], the inhibition in assay [1] was 8%. Further, in the assay with Leishmania amazonensis [2], the inhibition of growth at 100 µM was found to be 6%.
Consider `CN(C)CCCN1c2ccccc2Sc2ccc(Cl)cc21` [CHLORPROMAZINE], for which, on Trypanothione reductase [4], the 50% inhibitory concentration (IC50) was 5.8 µM and the Ki amounted to 3.2 µM. The inhibition in [7] is 70%.
Regarding `COc1cc(CC2NCCc3c2[nH]c2ccccc32)ccc1O` (centres undefined), the Ki on Trypanothione reductase [4] was determined as 7 µM.
With `CN(C)CCc1cn(C)c2ccc(O)cc12`, the inhibition in [1] amounted to 9%.
For the molecule `COc1ccc2c3c(n(CCCN(C)C)c2c1)C(C)=NCC3`, on Trypanothione reductase [4], the Ki was 35.1 µM. The inhibition in assay [1] was 50%; in assay [5] it was 6%. In the assay with Leishmania amazonensis [2], the inhibition of growth at 100 µM was 57%.
Take `c1ccc2c(c1)[nH]c1cnccc12`: the inhibition in assay [1] worked out at 10%.
With `C[C@H]1[C@H]2CC[C@H]3[C@@H]4CC=C5C[C@@H](N(C)C)CC[C@]5(C)[C@H]4CC[C@]23CN1C` [CONESSINE], the inhibition amounted to 25% in assay [1], 45% in assay [8], 73% in assay [9] and 91% in assay [10]. Further, the inhibition of growth at 100 µM in the assay with Leishmania amazonensis [2] stood at 97%.
On to `O=C(CCc1ccc(O)c(O)c1)NCCCNCCCCNCCCNC(=O)CCc1ccc(O)c(O)c1` [KUKOAMINE A], for which the inhibition constant Ki is 1.8 µM at Trypanothione reductase [11] and 13 µM at Trypanothione reductase [12].
For the molecule `N=C(N)c1ccc(OCCCCCOc2ccc(C(=N)N)cc2)cc1` [PENTAMIDINE], the inhibition of growth at 100 µM with Leishmania amazonensis [2] was 86%. Further, half-maximal inhibition in the assay with Leishmania amazonensis [13] (IC50) was put at 0.29 µM.
`COc1ccc2cc1Oc1ccc(cc1)C[C@H]1c3c(cc4c(c3Oc3cc5c(cc3OC)CCN(C)[C@@H]5C2)OCO4)CCN1C` [CEPHARANTHINE]: the Ki on Trypanothione reductase [4] was 7.6 µM; on Trypanothione reductase [14], 51.6 µM.

(Values after ChEMBL document CHEMBL1155017, “The use of natural product scaffolds as leads in the search for trypanothione reductase inhibitors” (Bioorg Med Chem, 2008).)
